The target of one assay is T1, human LPA1 (Homo sapiens, UniProt Q92633).
T1 construct: the full-length cDNA for human LPA1 was obtained by PCR of the reverse transcription reaction; expressed in transfected cells
The experiment in a line: LPA1 calcium flux assay (HLPA1 Ca Flux). In kind it is cell-based. As to conditions: Human LPA1 expressing CHO cells, stimulated with 10 nM LPA. The method, boiled down: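 CHO cells stably expressing cloned human LPA1, serum-starved overnight and loaded with Calcium 4 dye, were preincubated 30 min at room temperature with compound. Cells were then challenged with 10 nM LPA and intracellular Ca2+ measured; IC50 values came from titration curves.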
Background: A change in cytosolic calcium serves as a functional read-out for many receptors and channels.

For a further assay, the target named is T2, human LPA3 (Homo sapiens, UniProt Q9UBY5).
T2 construct: The full-length cDNA fragment for human LPA3 was obtained by PCR from the vector; expressed in transfected cells; cDNA from the Missouri S&T cDNA Resource Center
T2 sequence (Q9UBY5 1-353): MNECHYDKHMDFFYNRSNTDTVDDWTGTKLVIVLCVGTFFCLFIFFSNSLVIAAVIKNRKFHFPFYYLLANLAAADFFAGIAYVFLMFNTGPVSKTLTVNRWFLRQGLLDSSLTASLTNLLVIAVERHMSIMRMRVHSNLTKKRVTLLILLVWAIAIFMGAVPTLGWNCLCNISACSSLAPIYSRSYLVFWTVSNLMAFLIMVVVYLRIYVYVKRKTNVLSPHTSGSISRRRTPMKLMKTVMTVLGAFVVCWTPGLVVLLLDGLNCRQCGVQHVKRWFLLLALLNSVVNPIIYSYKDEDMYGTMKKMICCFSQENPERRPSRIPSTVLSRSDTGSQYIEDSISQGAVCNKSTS
The experiment in a line: LPA3 calcium flux assay. In kind it is cell-based. As to conditions: Human LPA3 expressing CHO cells, stimulated with 10 nM LPA; read-out: HLPA3 Ca Flux IC50. The essentials:
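Stably transfected CHO cells, serum-starved overnight, loaded with Calcium 4 dye 1 h at 37 °C in HBSS/20 mM Hepes with 0.3% fatty-acid-free HSA. Compounds preincubated 30 min at room temperature, then cells stimulated with 10 nM LPA; intracellular Ca2+ read by fluorescence; IC50 from titration curves.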

Here are results for 21 compounds from patent US20110301142A1, “ANTAGONISTS OF LYSOPHOSPHATIDIC ACID RECEPTORS” (priority 2008, published 2011).

What is called IC50 is the concentration that inhibits the measured activity by half.

T1 sequence (Q92633 whole entry): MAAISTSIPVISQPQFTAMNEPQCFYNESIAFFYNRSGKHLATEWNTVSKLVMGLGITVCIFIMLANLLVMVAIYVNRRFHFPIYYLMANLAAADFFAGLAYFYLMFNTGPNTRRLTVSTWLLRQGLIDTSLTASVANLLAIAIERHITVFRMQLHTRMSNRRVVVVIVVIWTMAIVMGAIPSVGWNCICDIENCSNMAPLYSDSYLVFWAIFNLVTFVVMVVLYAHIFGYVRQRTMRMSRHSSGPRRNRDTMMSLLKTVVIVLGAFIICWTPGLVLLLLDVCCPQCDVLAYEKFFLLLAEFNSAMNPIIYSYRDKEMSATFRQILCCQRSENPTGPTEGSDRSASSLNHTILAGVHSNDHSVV

With `COC(=O)Cc1ccc(OCc2ccc(-c3onc(C)c3NC(=O)O[C@H](C)c3ccccc3Cl)cc2)cc1` [Compound 1-102, [4-(4-{4-[(R)-1-(2-Chloro-phenyl)-ethoxycarbonylamino]-3-methyl-isoxazol-5-yl}-benzyloxy)-phenyl]-acetic acid methyl ester], the IC50 at human LPA1 was under 300 nM; on human LPA3, 1000 to 50000 nM.

Regarding `Cc1noc(-c2ccc(COc3ccc(CC(=O)O)cc3)cc2)c1NC(=O)O[C@H](C)c1ccccc1Cl` [Compound 1-103, [4-(4-{4-[(R)-1-(2-Chloro-phenyl)-ethoxycarbonylamino]-3-methyl-isoxazol-5-yl}-benzyloxy)-phenyl]-acetic acid], the IC50 is under 300 nM on human LPA1 and 1000 to 50000 nM on human LPA3.

Take `Cc1noc(-c2ccc(Sc3ccc(CC(=O)O)cc3)cc2)c1NC(=O)O[C@H](C)c1ccccc1F` [Compound 1-109, [4-(4-{4-[(R)-1-(2-Fluoro-phenyl)-ethoxycarbonylamino]-3-methyl-isoxazol-5-yl}-phenylsulfanyl)-phenyl]-acetic acid]: the IC50 at human LPA1 is under 300 nM; at human LPA3, 1000 to 50000 nM.

Take `Cc1noc(-c2ccc(-c3ccc(CC(=O)O)cc3)cc2)c1NC(=O)O[C@@H](C)c1ccccc1F` [Compound 1-111, (4′-{4-[(S)-1-(2-Fluoro-phenyl)-ethoxycarbonylamino]-3-methyl-isoxazol-5-yl}-biphenyl-4-yl)-acetic acid]: the IC50 was under 300 nM at human LPA1 and 1000 to 50000 nM on human LPA3.

For the compound `Cc1noc(-c2ccc(-c3ccc(CC(=O)O)cc3)cc2)c1NC(=O)O[C@@H](C)c1ccccc1Cl` [Compound 1-112, (4′-{4-[(S)-1-(2-Chloro-phenyl)-ethoxycarbonylamino]-3-methyl-isoxazol-5-yl}-biphenyl-4-yl)-acetic acid], the IC50 lay in the range of 300 to 1000 nM at human LPA1 and 1000 to 50000 nM on human LPA3.

In the case of `Cc1noc(-c2ccc(COc3ccccc3CC(=O)O)cc2)c1NC(=O)O[C@H](C)c1ccccc1Cl` [Compound 1-114, [2-(4-{4-[(R)-1-(2-Chloro-phenyl)-ethoxycarbonylamino]-3-methyl-isoxazol-5-yl}-benzyloxy)-phenyl]-acetic acid], the IC50 at human LPA1 is under 300 nM; on human LPA3, 1000 to 50000 nM.

In the case of `Cc1noc(-c2ccc(-c3ccc(CC(=O)O)cc3)cc2)c1NC(=O)OC(C)c1cccc(F)c1F` (stereo not drawn) [Compound 1-116, (4′-{4-[1-(2,3-Difluoro-phenyl)-ethoxycarbonylamino]-3-methyl-isoxazol-5-yl}-biphenyl-4-yl)-acetic acid], the IC50 at human LPA1 was under 300 nM; at human LPA3, 1000 to 50000 nM.

Turning to `Cc1noc(-c2ccc(-c3ccc(CC(=O)O)cc3)cc2)c1NC(=O)OC(C)c1ccc(F)cc1F` (stereo not drawn) [Compound 1-117, (4′-{4-[1-(2,4-Difluoro-phenyl)-ethoxycarbonylamino]-3-methyl-isoxazol-5-yl}-biphenyl-4-yl)-acetic acid], the IC50 was under 300 nM on human LPA1 and 1000 to 50000 nM on human LPA3.

In the case of `Cc1noc(-c2ccc(-c3ccc(CC(=O)O)cc3)cc2)c1NC(=O)OC(C)c1cc(F)ccc1F` (stereo not drawn) [Compound 1-119, (4′-{4-[1-(2,5-Difluoro-phenyl)-ethoxycarbonylamino]-3-methyl-isoxazol-5-yl}-biphenyl-4-yl)-acetic acid], the IC50 is under 300 nM at human LPA1 and 1000 to 50000 nM at human LPA3.

As for `Cc1noc(-c2ccc(-c3ccc(CC(=O)O)cc3)cc2)c1NC(=O)OC(C)c1c(F)cccc1F` (stereo not drawn) [Compound 1-120, (4′-{4-[1-(2,6-Difluoro-phenyl)-ethoxycarbonylamino]-3-methyl-isoxazol-5-yl}-biphenyl-4-yl)-acetic acid], the IC50 is under 300 nM at human LPA1 and over 50000 nM at human LPA3.

Regarding `Cc1noc(-c2ccc(-c3cccc(CC(=O)O)c3)cc2)c1NC(=O)O[C@H](C)c1ccccc1` [Compound 1-121], the IC50 on human LPA1 is under 300 nM; on human LPA3, over 50000 nM.

For `Cc1noc(-c2ccc(-c3ccc(C(=O)O)cc3)cc2)c1NC(=O)O[C@H](C)c1ccccc1` [Compound 1-122], the IC50 on human LPA1 is under 300 nM; at human LPA3, 1000 to 50000 nM.

Consider `Cc1ccccc1[C@@H](C)OC(=O)Nc1c(C)noc1-c1ccc(-c2ccc(CC(=O)O)cc2)cc1` [Compound 1-124], for which the IC50 is under 300 nM at human LPA1 and 1000 to 50000 nM on human LPA3.

On to `Cc1noc(-c2ccc(-c3ccc(CC(=O)O)cn3)cn2)c1NC(=O)O[C@H](C)c1ccccc1F` [Compound 1-126, (6′-{4-[(R)-1-(2-Fluoro-phenyl)-ethoxycarbonylamino]-3-methyl-isoxazol-5-yl}-[2,3,1]bipyridinyl-5-yl)-acetic acid], for which the IC50 is under 300 nM on human LPA1 and 1000 to 50000 nM on human LPA3.

Regarding `Cc1noc(-c2ccc(-c3ccc(CC(=O)O)cc3)cc2Cl)c1NC(=O)O[C@H](C)c1ccccc1Cl` [Compound 1-129, (3′-Chloro-4′-{4-[(R)-1-(2-chloro-phenyl)-ethoxycarbonylamino]-3-methyl-isoxazol-5-yl}-biphenyl-4-yl)-acetic acid], the figures for the IC50 at human LPA1 and on human LPA3 were under 300 nM and 1000 to 50000 nM, respectively.

For the compound `CCC(C(=O)O)c1ccc(-c2ccc(-c3onc(C)c3NC(=O)O[C@H](C)c3ccccc3Cl)cc2)cc1` (stereo partly drawn) [Compound 1-130, 2-(4′-{4-[(R)-1-(2-Chloro-phenyl)-ethoxycarbonylamino]-3-methyl-isoxazol-5-yl}-biphenyl-4-yl)-butyric acid], the IC50 at human LPA1 is under 300 nM; at human LPA3, 300 to 1000 nM.

In the case of `Cc1noc(-c2ccc(-c3ccc(CC(=O)O)cc3)c(Cl)c2)c1NC(=O)O[C@H](C)c1ccccc1Cl` [Compound 1-131, (2′-Chloro-4′-{4-[(R)-1-(2-chloro-phenyl)-ethoxycarbonylamino]-3-methyl-isoxazol-5-yl}-biphenyl-4-yl)-acetic acid], the IC50 at human LPA1 was under 300 nM; at human LPA3, 1000 to 50000 nM.

Take `Cc1noc(-c2ccc(-c3ccc(CC(=O)O)cc3)c(F)c2)c1NC(=O)O[C@H](C)c1ccccc1Cl` [Compound 1-132, (4′-{4-[(R)-1-(2-Chloro-phenyl)-ethoxycarbonylamino]-3-methyl-isoxazol-5-yl}-2′-fluoro-biphenyl-4-yl)-acetic acid]: the IC50 was under 300 nM on human LPA1 and 1000 to 50000 nM on human LPA3.

On to `Cc1noc(-c2ccc(-c3ccc(C(=O)O)cc3)cc2)c1NC(=O)O[C@H](C)c1ccccc1Cl` [Compound 1-133, 4′-{4-[(R)-1-(2-Chloro-phenyl)-ethoxycarbonylamino]-3-methyl-isoxazol-5-yl}-biphenyl-4-carboxylic acid], for which the IC50 at human LPA1 is under 300 nM; at human LPA3 it was 300 to 1000 nM.

On to `Cc1noc(-c2ccc(Oc3cccc(CC(=O)O)c3)cc2)c1NC(=O)O[C@H](C)c1ccccc1Cl` [Compound 1-137, [3-(4-{4-[(R)-1-(2-Chloro-phenyl)-ethoxycarbonylamino]-3-methyl-isoxazol-5-yl}-phenoxy)-phenyl]acetic acid], for which the IC50 at human LPA1 is under 300 nM; at human LPA3, 1000 to 50000 nM.

On to `Cc1noc(-c2ccc(Oc3ccc(CC(=O)O)cc3)cc2)c1NC(=O)O[C@H](C)c1ccccc1Cl` [Compound 1-138, [4-(4-{4-[(R)-1-(2-Chloro-phenyl)-ethoxycarbonylamino]-3-methyl-isoxazol-5-yl}-phenoxy)-phenyl]-acetic acid], for which the IC50 at human LPA1 was under 300 nM; on human LPA3, 300 to 1000 nM.
